Source: the kinase profiling compilation of Christmann-Franck et al. (2016)

What was measured:
Experiment in all cases: KINOMEscan competition binding
Conditions in all cases: compound 10.0 µM
[1] = target: EPHA8 (human) (UniProt P29322)
[2] = target: FGFR1 (human) (UniProt P11362)
[3] = target: FRK (human) (UniProt P42685)
[4] = target: RIOK3 (human) (UniProt O14730)
[5] = target: TTK (human) (UniProt P33981)
[6] = target: HIPK1 (human) (UniProt Q86Z02)
[7] = target: CDK16 (human) (UniProt Q00536)
Sequence of CDK16 (human) (Q00536 whole entry, looked up): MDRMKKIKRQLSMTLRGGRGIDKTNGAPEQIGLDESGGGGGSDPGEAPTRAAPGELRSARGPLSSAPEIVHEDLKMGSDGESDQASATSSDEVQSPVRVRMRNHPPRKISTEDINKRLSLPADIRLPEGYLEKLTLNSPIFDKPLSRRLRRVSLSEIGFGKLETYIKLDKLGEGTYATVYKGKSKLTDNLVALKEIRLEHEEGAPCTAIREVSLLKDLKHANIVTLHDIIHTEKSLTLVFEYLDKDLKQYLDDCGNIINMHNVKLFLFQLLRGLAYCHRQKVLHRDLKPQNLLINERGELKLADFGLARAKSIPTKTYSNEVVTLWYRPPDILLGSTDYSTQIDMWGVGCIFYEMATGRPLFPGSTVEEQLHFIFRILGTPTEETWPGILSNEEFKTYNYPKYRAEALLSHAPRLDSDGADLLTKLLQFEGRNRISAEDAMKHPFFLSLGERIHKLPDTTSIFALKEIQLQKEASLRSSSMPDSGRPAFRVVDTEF

[8] = tested on: EGFR (human), P00533 [G719C]
[9] = target: CLK3 (human) (UniProt P49761)
[10] = target: CHEK2 (human) (UniProt O96017)
[11] = target: AAK1 (human) (UniProt Q2M2I8)
[12] = target: RIPK2 (human) (UniProt O43353)
[13] = target: MAPK13 (human) (UniProt O15264)
Sequence of MAPK13 (human) (O15264 whole entry, looked up): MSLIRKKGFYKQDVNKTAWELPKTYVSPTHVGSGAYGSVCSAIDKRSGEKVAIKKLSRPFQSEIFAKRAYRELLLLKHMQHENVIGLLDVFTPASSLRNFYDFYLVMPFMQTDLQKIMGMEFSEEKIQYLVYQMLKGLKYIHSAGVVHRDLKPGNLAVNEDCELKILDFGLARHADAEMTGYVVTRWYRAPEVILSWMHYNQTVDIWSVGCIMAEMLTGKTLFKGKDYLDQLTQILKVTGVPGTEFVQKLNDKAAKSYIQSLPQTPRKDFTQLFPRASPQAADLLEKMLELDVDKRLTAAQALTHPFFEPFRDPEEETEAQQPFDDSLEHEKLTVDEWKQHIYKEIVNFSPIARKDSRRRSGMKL

[14] = target: PIM2 (human) (UniProt Q9P1W9)
Sequence of PIM2 (human) (Q9P1W9 whole entry, looked up): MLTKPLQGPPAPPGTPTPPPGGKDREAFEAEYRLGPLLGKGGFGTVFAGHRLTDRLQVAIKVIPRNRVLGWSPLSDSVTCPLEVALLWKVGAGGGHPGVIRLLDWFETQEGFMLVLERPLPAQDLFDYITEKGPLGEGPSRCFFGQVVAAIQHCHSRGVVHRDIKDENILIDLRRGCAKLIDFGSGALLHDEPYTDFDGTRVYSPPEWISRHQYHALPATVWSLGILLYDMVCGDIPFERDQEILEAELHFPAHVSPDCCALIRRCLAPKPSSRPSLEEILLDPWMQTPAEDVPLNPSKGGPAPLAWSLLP

[15] = target: MARK1 (human) (UniProt Q9P0L2)
[16] = target: TAOK1 (human) (UniProt Q7L7X3)
[17] = target: RPS6KA4 KD2 (human) (UniProt O75676)
Sequence of RPS6KA4 KD2 (human) (O75676 whole entry, looked up): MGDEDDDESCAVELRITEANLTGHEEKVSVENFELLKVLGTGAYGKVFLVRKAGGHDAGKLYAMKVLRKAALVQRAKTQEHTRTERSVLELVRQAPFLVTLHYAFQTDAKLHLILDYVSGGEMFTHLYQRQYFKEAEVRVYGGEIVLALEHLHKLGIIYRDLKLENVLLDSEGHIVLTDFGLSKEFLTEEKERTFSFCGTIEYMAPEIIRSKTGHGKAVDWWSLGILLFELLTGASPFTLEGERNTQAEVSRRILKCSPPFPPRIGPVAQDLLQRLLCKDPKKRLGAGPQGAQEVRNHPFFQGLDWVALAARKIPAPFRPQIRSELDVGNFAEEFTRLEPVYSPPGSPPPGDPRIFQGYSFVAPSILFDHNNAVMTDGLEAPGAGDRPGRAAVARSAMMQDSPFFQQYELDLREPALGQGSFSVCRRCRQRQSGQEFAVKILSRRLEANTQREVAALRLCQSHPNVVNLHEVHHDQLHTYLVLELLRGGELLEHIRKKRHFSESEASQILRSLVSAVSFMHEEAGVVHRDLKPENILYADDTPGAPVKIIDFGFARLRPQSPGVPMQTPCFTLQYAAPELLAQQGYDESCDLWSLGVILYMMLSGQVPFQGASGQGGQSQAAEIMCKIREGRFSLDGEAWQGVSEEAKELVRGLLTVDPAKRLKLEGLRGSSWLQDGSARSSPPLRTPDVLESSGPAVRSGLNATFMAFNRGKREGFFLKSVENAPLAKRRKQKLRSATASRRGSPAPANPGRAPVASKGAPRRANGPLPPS

[18] = target: ERBB4 (human) (UniProt Q15303)
[19] = target: DMPK (human) (UniProt Q09013)
Sequence of DMPK (human) (Q09013 whole entry, looked up): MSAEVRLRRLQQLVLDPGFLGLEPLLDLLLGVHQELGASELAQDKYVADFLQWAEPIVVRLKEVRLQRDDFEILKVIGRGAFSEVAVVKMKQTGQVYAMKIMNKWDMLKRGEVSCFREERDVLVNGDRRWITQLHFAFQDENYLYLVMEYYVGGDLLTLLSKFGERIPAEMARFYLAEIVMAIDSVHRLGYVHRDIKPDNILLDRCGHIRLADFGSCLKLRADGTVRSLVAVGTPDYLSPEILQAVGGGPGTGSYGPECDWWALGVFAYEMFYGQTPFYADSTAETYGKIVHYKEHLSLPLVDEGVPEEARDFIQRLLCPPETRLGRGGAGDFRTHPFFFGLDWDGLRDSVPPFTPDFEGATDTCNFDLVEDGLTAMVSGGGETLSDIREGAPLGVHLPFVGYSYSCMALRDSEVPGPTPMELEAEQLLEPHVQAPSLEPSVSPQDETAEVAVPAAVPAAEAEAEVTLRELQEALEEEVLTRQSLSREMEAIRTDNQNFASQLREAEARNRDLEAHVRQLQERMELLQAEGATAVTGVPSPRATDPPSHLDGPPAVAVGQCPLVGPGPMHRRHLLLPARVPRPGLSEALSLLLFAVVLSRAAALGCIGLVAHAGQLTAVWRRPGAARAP

[20] = target: CDK11B (human) (UniProt P21127)
[21] = target: PAK3 (human) (UniProt O75914)
Sequence of PAK3 (human) (O75914 whole entry, looked up): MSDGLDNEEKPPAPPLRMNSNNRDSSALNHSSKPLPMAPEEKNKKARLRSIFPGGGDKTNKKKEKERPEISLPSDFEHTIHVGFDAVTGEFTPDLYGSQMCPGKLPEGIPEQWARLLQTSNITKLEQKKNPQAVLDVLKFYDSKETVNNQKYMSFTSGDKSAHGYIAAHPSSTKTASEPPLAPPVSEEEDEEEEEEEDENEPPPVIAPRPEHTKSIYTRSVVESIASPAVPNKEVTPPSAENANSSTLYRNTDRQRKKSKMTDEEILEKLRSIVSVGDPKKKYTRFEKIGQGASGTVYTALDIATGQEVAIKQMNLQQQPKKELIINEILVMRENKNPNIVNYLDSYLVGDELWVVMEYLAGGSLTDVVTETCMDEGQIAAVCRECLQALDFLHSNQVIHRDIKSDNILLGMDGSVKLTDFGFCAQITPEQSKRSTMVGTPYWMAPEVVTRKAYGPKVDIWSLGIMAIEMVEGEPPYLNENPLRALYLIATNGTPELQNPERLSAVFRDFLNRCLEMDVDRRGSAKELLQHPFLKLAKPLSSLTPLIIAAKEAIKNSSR

[22] = target: STK36 (human) (UniProt Q9NRP7)
[23] = target: MAP3K5 (human) (UniProt Q99683)
[24] = target: MAP3K6 (human) (UniProt O95382)
[25] = target: PRKAA1 (human) (UniProt Q13131)
[26] = target: FLT3 (human) (UniProt P36888)
[27] = target: PKN2 (human) (UniProt Q16513)
[28] = target: MET (human) (UniProt P08581)
[29] = target: AKT1 (human) (UniProt P31749)
[30] = target: STK10 (human) (UniProt O94804)
[31] = target: IRAK4 (human) (UniProt Q9NWZ3)
[32] = target: CSNK1A1L (human) (UniProt Q8N752)
[33] = target: TESK1 (human) (UniProt Q15569)
Sequence of TESK1 (human) (Q15569 whole entry, looked up): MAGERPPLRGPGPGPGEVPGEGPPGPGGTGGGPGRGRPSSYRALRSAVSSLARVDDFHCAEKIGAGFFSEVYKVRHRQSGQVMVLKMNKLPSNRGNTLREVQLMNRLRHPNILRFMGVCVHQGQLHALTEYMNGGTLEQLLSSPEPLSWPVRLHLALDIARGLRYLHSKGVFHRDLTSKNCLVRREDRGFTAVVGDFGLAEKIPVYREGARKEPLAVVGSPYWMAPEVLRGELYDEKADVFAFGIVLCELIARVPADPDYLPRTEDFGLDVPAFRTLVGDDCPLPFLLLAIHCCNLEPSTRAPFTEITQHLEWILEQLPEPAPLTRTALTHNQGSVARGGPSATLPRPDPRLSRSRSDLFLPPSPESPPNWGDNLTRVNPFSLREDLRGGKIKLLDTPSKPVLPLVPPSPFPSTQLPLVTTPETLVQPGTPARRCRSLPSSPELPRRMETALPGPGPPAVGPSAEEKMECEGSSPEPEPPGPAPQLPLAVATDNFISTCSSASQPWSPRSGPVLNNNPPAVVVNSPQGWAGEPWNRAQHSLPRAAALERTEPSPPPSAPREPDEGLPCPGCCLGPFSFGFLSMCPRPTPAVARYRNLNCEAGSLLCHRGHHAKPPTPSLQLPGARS

[34] = target: EPHB1 (human) (UniProt P54762)
[35] = target: CHEK1 (human) (UniProt O14757)
Sequence of CHEK1 (human) (O14757 whole entry, looked up): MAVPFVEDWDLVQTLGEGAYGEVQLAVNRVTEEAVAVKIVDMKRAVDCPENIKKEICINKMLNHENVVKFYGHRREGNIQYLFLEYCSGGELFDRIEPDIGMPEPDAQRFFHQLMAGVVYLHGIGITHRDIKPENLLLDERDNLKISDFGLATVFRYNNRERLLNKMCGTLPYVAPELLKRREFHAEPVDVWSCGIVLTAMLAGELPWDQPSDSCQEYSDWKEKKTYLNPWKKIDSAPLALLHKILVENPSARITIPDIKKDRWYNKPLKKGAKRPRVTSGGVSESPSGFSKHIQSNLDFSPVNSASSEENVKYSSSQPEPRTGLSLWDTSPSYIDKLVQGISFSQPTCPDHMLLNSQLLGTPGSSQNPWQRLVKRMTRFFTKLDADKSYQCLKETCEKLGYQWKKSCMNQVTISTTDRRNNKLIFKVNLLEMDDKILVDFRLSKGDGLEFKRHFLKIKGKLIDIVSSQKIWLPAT

[36] = target: MARK4 (human) (UniProt Q96L34)
[37] = target: MYO3B (human) (UniProt Q8WXR4)
[38] = target: ACVR1B (human) (UniProt P36896)
[39] = target: CDC42BPA (human) (UniProt Q5VT25)
[40] = target: PRKACA (human) (UniProt P17612)

Sequence of FRK (human) (P42685 whole entry, looked up): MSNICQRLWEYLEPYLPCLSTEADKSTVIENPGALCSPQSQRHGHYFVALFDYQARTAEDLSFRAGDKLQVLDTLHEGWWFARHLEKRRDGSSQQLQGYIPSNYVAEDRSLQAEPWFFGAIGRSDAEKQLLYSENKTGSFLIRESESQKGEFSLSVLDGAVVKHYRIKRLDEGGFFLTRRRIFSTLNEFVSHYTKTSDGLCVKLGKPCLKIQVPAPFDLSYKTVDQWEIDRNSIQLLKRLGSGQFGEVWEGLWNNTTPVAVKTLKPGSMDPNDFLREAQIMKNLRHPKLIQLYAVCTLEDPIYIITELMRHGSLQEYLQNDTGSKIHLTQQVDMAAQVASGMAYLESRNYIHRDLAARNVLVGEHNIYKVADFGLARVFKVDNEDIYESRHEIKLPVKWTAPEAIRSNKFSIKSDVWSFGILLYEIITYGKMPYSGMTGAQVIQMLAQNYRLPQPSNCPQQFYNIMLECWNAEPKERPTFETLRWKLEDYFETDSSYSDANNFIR

## CC1=C(C(=O)Nc2cc3cn[nH]c3cc2F)C(c2ccc(C(F)(F)F)cc2)CC(=O)N1 (stereo unspecified)
[1]
  kinase still bound, per cent of control: 71%
[2]
  kinase still bound, per cent of control: 73%
[3]
  kinase still bound, per cent of control: 53%
[4]
  kinase still bound, per cent of control: 100%
[5]
  kinase still bound, per cent of control: 100%
[6]
  kinase still bound, per cent of control: 75%
[7]
  kinase still bound, per cent of control: 100%
[8]
  kinase still bound, per cent of control: 37%
[9]
  kinase still bound, per cent of control: 65%
[10]
  kinase still bound, per cent of control: 78%
[11]
  kinase still bound, per cent of control: 70%
[12]
  kinase still bound, per cent of control: 77%
[13]
  kinase still bound, per cent of control: 98%
[14]
  kinase still bound, per cent of control: 100%
[15]
  kinase still bound, per cent of control: 100%
[16]
  kinase still bound, per cent of control: 53%
[17]
  kinase still bound, per cent of control: 100%
[18]
  kinase still bound, per cent of control: 41%
[19]
  kinase still bound, per cent of control: 100%
[20]
  kinase still bound, per cent of control: 89%
[21]
  kinase still bound, per cent of control: 36%
[22]
  kinase still bound, per cent of control: 96%
[23]
  kinase still bound, per cent of control: 100%
[24]
  kinase still bound, per cent of control: 80%
[25]
  kinase still bound, per cent of control: 13%
[26]
  kinase still bound, per cent of control: 100%
[27]
  kinase still bound, per cent of control: 52%
[28]
  kinase still bound, per cent of control: 51%
[29]
  kinase still bound, per cent of control: 76%
[30]
  kinase still bound, per cent of control: 100%
[31]
  kinase still bound, per cent of control: 97%
[32]
  kinase still bound, per cent of control: 98%
[33]
  kinase still bound, per cent of control: 92%
[34]
  kinase still bound, per cent of control: 91%
[35]
  kinase still bound, per cent of control: 100%
[36]
  kinase still bound, per cent of control: 100%
[37]
  kinase still bound, per cent of control: 100%
[38]
  kinase still bound, per cent of control: 94%
[39]
  kinase still bound, per cent of control: 79%

## N#C/C(=C1/Nc2ccccc2S1)c1ccnc(NCCc2cccnc2)n1
[1]
  kinase still bound, per cent of control: 100%
[2]
  kinase still bound, per cent of control: 98%
[3]
  kinase still bound, per cent of control: 100%
[4]
  kinase still bound, per cent of control: 33%
[5]
  kinase still bound, per cent of control: 62%
[6]
  kinase still bound, per cent of control: 1.2%
[7]
  kinase still bound, per cent of control: 44%
[9]
  kinase still bound, per cent of control: 76%
[10]
  kinase still bound, per cent of control: 94%
[11]
  kinase still bound, per cent of control: 10%
[12]
  kinase still bound, per cent of control: 81%
[13]
  kinase still bound, per cent of control: 51%
[14]
  kinase still bound, per cent of control: 20%
[15]
  kinase still bound, per cent of control: 100%
[16]
  kinase still bound, per cent of control: 38%
[17]
  kinase still bound, per cent of control: 57%
[18]
  kinase still bound, per cent of control: 63%
[19]
  kinase still bound, per cent of control: 100%
[40]
  kinase still bound, per cent of control: 100%
[20]
  kinase still bound, per cent of control: 96%
[21]
  kinase still bound, per cent of control: 100%
[22]
  kinase still bound, per cent of control: 100%
[23]
  kinase still bound, per cent of control: 100%
[24]
  kinase still bound, per cent of control: 100%
[25]
  kinase still bound, per cent of control: 100%
[26]
  kinase still bound, per cent of control: 100%
[27]
  kinase still bound, per cent of control: 100%
[28]
  kinase still bound, per cent of control: 98%
[29]
  kinase still bound, per cent of control: 100%
[30]
  kinase still bound, per cent of control: 100%
[31]
  kinase still bound, per cent of control: 48%
[32]
  kinase still bound, per cent of control: 67%
[33]
  kinase still bound, per cent of control: 87%
[34]
  kinase still bound, per cent of control: 100%
[35]
  kinase still bound, per cent of control: 100%
[36]
  kinase still bound, per cent of control: 100%
[37]
  kinase still bound, per cent of control: 100%
[38]
  kinase still bound, per cent of control: 84%
[39]
  kinase still bound, per cent of control: 83%

## O=c1[nH]c2ccccc2n1C1CCN(Cc2ccc(-c3nc4cc5[nH]cnc5cc4nc3-c3ccccc3)cc2)CC1
[1]
  kinase still bound, per cent of control: 95%
[2]
  kinase still bound, per cent of control: 73%
[3]
  kinase still bound, per cent of control: 100%
[4]
  kinase still bound, per cent of control: 64%
[5]
  kinase still bound, per cent of control: 100%
[6]
  kinase still bound, per cent of control: 69%
[7]
  kinase still bound, per cent of control: 97%
[8]
  kinase still bound, per cent of control: 53%
[9]
  kinase still bound, per cent of control: 100%
[10]
  kinase still bound, per cent of control: 100%
[11]
  kinase still bound, per cent of control: 100%
[12]
  kinase still bound, per cent of control: 64%
[13]
  kinase still bound, per cent of control: 100%
[14]
  kinase still bound, per cent of control: 91%
[15]
  kinase still bound, per cent of control: 97%
[16]
  kinase still bound, per cent of control: 91%
[17]
  kinase still bound, per cent of control: 82%
[18]
  kinase still bound, per cent of control: 66%
[19]
  kinase still bound, per cent of control: 98%
[40]
  kinase still bound, per cent of control: 100%
[20]
  kinase still bound, per cent of control: 97%
[21]
  kinase still bound, per cent of control: 72%
[22]
  kinase still bound, per cent of control: 74%
[23]
  kinase still bound, per cent of control: 83%
[24]
  kinase still bound, per cent of control: 100%
[25]
  kinase still bound, per cent of control: 72%
[27]
  kinase still bound, per cent of control: 92%
[28]
  kinase still bound, per cent of control: 39%
[29]
  kinase still bound, per cent of control: 77%
[30]
  kinase still bound, per cent of control: 65%
[31]
  kinase still bound, per cent of control: 80%
[32]
  kinase still bound, per cent of control: 80%
[33]
  kinase still bound, per cent of control: 74%
[34]
  kinase still bound, per cent of control: 100%
[35]
  kinase still bound, per cent of control: 100%
[36]
  kinase still bound, per cent of control: 99%
[37]
  kinase still bound, per cent of control: 100%
[38]
  kinase still bound, per cent of control: 100%
[39]
  kinase still bound, per cent of control: 85%

## COc1cc2c(Nc3ccc(NC(=O)c4ccccc4)cc3)ncnc2cc1OCCCN1CCOCC1
[1]
  kinase still bound, per cent of control: 83%
[2]
  kinase still bound, per cent of control: 94%
[3]
  kinase still bound, per cent of control: 82%
[4]
  kinase still bound, per cent of control: 100%
[5]
  kinase still bound, per cent of control: 40%
[6]
  kinase still bound, per cent of control: 14%
[7]
  kinase still bound, per cent of control: 64%
[8]
  kinase still bound, per cent of control: 0.45%
[9]
  kinase still bound, per cent of control: 100%
[10]
  kinase still bound, per cent of control: 100%
[11]
  kinase still bound, per cent of control: 94%
[12]
  kinase still bound, per cent of control: 2.8%
[13]
  kinase still bound, per cent of control: 40%
[14]
  kinase still bound, per cent of control: 100%
[15]
  kinase still bound, per cent of control: 100%
[16]
  kinase still bound, per cent of control: 95%
[17]
  kinase still bound, per cent of control: 100%
[18]
  kinase still bound, per cent of control: 0.65%
[19]
  kinase still bound, per cent of control: 100%
[40]
  kinase still bound, per cent of control: 100%
[20]
  kinase still bound, per cent of control: 16%
[21]
  kinase still bound, per cent of control: 87%
[22]
  kinase still bound, per cent of control: 98%
[23]
  kinase still bound, per cent of control: 100%
[24]
  kinase still bound, per cent of control: 100%
[25]
  kinase still bound, per cent of control: 62%
[26]
  kinase still bound, per cent of control: 8.8%
[27]
  kinase still bound, per cent of control: 100%
[29]
  kinase still bound, per cent of control: 100%
[30]
  kinase still bound, per cent of control: 0.15%
[31]
  kinase still bound, per cent of control: 51%
[32]
  kinase still bound, per cent of control: 99%
[33]
  kinase still bound, per cent of control: 59%
[34]
  kinase still bound, per cent of control: 100%
[35]
  kinase still bound, per cent of control: 100%
[36]
  kinase still bound, per cent of control: 100%
[37]
  kinase still bound, per cent of control: 100%
[38]
  kinase still bound, per cent of control: 100%
[39]
  kinase still bound, per cent of control: 85%
